Assays:
[1] = target: Botulinum neurotoxin type A (Clostridium botulinum, UniProt P0DPI0); experiment: Inhibition of Clostridium botulinum neurotoxin A light chain by HPLC-based assay
[2] = target: Botulinum neurotoxin type A (Clostridium botulinum) (UniProt P0DPI0); experiment: Inhibition of Clostridium botulinum neurotoxin A light chain at 20 uM by HPLC-based assay
Botulinum neurotoxin type A (Clostridium botulinum), sequence (P0DPI0 2-448 limits assumed): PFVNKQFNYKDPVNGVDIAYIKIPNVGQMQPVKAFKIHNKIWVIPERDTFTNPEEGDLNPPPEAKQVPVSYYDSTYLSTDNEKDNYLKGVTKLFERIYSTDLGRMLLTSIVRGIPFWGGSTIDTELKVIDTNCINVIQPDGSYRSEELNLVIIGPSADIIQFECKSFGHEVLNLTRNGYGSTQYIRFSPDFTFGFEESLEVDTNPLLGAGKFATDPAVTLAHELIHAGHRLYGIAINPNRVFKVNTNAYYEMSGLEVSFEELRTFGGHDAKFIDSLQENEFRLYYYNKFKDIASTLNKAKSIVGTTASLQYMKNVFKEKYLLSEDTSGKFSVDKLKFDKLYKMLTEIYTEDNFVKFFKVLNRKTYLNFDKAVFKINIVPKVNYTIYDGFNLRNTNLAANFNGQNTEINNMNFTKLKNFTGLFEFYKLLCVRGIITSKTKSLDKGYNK

Botulinum neurotoxin type A, sequence (P0DPI0 2-448 limits assumed): as above

Row | SMILES | IC50 [1] [µM] | Ki [1] [µM] | inhibition [2] [%]
1 | N=C(N)c1ccc(Oc2ccc(-c3cc4ccc(C(=N)N)cc4[nH]3)cc2)cc1 | 3 | 10 | –
2 | Clc1ccc2c(NCCCNCCCNc3ccnc4cc(Cl)ccc34)ccnc2c1 | – | – | 60
3 | N=C(N)c1ccc2cc(-c3ccc(Oc4ccc(/C(N)=N/CCCNc5ccnc6cc(Cl)ccc56)cc4)cc3)[nH]c2c1 | – | 0.6 | 95
4 | N=C(N)c1ccc(Oc2ccc(-c3cc4ccc(/C(N)=N/CCCNc5ccnc6cc(Cl)ccc56)cc4[nH]3)cc2)cc1 | – | 0.6 | 95
